System: HB-EGF and ADAM 12S co-expressing cells
Experiment: Inhibition of adipogenesis by KB-R7785 (Oil Red O staining, morphology)
Assay type: cell-based, mouse
Protocol: Cells were grown in the 60 mm culture dishes (Corning). After reaching a cell confluence of 50-70%, the cells were washed with 1.0 ml of PBS for three times, fixed with 1.0 ml of 10% formalin for 60 minutes at room temperature. Oil Red O stock stain solution was prepared by mixing 0.3 g oil red O in 100 ml of isopropanol overnight at room temperature and filtered by using Whatman #2 filter papers. The formalin was removed and the cells were washed with deionized water. The culture dishes were aspirated and added with 1.0 ml of 60% isopropanol working solution to incubate 5 minutes at room temperature. Oil Red O working solution was prepared by diluting 30 ml of the stock stain with 20 ml of distilled water, filtered with Whatman #1 filter papers into a Coplin jar, and covered with a lid immediately. The 60% working isopropanol was removed and the culture dishes were filled with 1.0 ml working solution of Oil Red O, incubated for 5 minutes at room temperature. The cells were rinsed with deionized water until fluid becomes clear, and counterstained with 1 ml of hematoxylin for 1 minute at room temperature. The hematoxylin was then removed from the wells, and the cells were rinsed with deionized water and imaged under a microscope (Olympus). […]

## CNC(=O)[C@@H](NC(=O)[C@H](CC(C)C)[C@H](C)C(=O)NO)c1ccccc1 [KB-R7785, [4-(N-hydroxyamino)-2R-isobutyl-3S-methylsuccinyl]-L-phenylglycine-N-methylamide]
KB-R7785 10 μM, over 4 weeks, mouse fibroblasts stably transfected with ADAM 12S and HB-EGF
  Reversal of brown adipocytes / adipocyte morphology: returned the brown adipocytes to mouse fibroblasts
KB-R7785 20 μM in culture media, 3 weeks incubation, cells positive for Oil Red O before
  Oil Red O staining after incubation with inhibitor: lack Oil Red O staining
